# Measured values as given in ChEMBL document CHEMBL4725326, “Synthesis, α-glucosidase inhibition, and molecular docking studies of novel N-substituted hydrazide derivatives of atranorin as antidiabetic agents” (Bioorg Med Chem Lett, 2020).
# Experiments:
# [1] = Inhibition of alpha-glucosidase (unknown origin); parameters: species or system Homo sapiens
# [2] = test system: HEK293; assay: Cytotoxicity against HEK293 cells assessed as reduction in cell viability; format: cell-based; conditions: Homo sapiens
SMILES,IC50 [1],IC50 [2]
COC(=O)c1c(C)cc(OC(=O)c2c(C)cc(O)c(/C=N/NC(=O)CSc3nc4ccccc4s3)c2O)c(C)c1O,9.12 µM,70.1 µM
COC(=O)c1c(C)cc(OC(=O)c2c(C)cc(O)c(/C=N/NC(=O)c3cc(Cl)ccc3O)c2O)c(C)c1O,9.91 µM,63.2 µM
COC(=O)c1c(C)cc(OC(=O)c2c(C)cc(O)c(/C=N/NC(=O)COc3cc4ccccc4o3)c2O)c(C)c1O,39.7 µM,84.4 µM
COC(=O)c1c(C)cc(OC(=O)c2c(C)cc(O)c(/C=N/NC(=O)COc3ccc4ccccc4c3)c2O)c(C)c1O,18.9 µM,52.7 µM
COC(=O)c1c(C)cc(OC(=O)c2c(C)cc(O)c(/C=N/NC(=O)c3cc(I)ccc3O)c2O)c(C)c1O,41.2 µM,94.1 µM
C[C@H]1O[C@H](O[C@H]2[C@H](O)[C@@H](O)[C@@H](O[C@H]3[C@H](O)[C@@H](O)C(O)O[C@@H]3CO)O[C@@H]2CO)[C@H](O)[C@@H](O)[C@@H]1N[C@H]1C=C(CO)[C@@H](O)[C@H](O)[C@H]1O (some centres not stated) [ACARBOSE],93.6 µM,
COC(=O)c1c(C)cc(OC(=O)c2c(C)cc(O)c(C=O)c2O)c(C)c1O [ATRANORIN],> 100 µM,
COc1cccc2c1C(=O)c1c(O)c3c(c(O)c1C2=O)C[C@@](O)(C(=O)CO)C[C@@H]3O[C@H]1C[C@H](N)[C@H](O)[C@H](C)O1 [DOXORUBICIN],,7.92 µM

# Second part, led by results:
IC50 [1],SMILES,IC50 [2]
54.7 µM,COC(=O)c1c(C)cc(OC(=O)c2c(C)cc(O)c(/C=N/NC(=O)COc3ccc(C)cc3)c2O)c(C)c1O,> 100 µM
53.3 µM,COC(=O)c1c(C)cc(OC(=O)c2c(C)cc(O)c(/C=N/NC(=O)COc3ccccc3C)c2O)c(C)c1O,> 100 µM
40.6 µM,COC(=O)c1c(C)cc(OC(=O)c2c(C)cc(O)c(/C=N/NC(=O)COc3cccc(C)c3)c2O)c(C)c1O,> 100 µM
17.3 µM,COC(=O)c1c(C)cc(OC(=O)c2c(C)cc(O)c(/C=N/NC(=O)COc3ccc(Br)cc3)c2O)c(C)c1O,> 100 µM
31.5 µM,COC(=O)c1c(C)cc(OC(=O)c2c(C)cc(O)c(/C=N/NC(=O)CNc3ccc(C)cc3)c2O)c(C)c1O,> 100 µM
6.67 µM,COC(=O)c1c(C)cc(OC(=O)c2c(C)cc(O)c(/C=N/NC(=O)Cc3ccccc3)c2O)c(C)c1O,> 100 µM
28.1 µM,COC(=O)c1c(C)cc(OC(=O)c2c(C)cc(O)c(/C=N/NC(=O)COc3cc(C)ccc3C(C)C)c2O)c(C)c1O,> 100 µM
